Laboratory results: patent US20120015981A1, “Active compound combinations” (Bayer CorpScience AG, priority 2009, published 2012)

Tested on: Microdochium nivale
Test: Microdochium nivale test (lawn)/protective
Type: in vivo
Details: lawn (100% Agrostis stolonifera) in dishes; preventive application at 2000, 1000, 500 and 100 g/ha, 24 hours before inoculation with infected wheat grains; scoring after 5, 7, 14 and 21 days
Method: Microdochium nivale Test (Lawn)/Protective
Lawn seed (100% Agrostis stolonifera) was sown in dishes of the dimensions 38 cm×15 cm×9 cm. 7 days after sowing, the lawn was cut prior to preventive guanidinium hydroxide application at application rates of 2000, 1000, 500 and 100 g/ha. The water application rates were […] (converted). 24 hours after the preventive application of the active compound, the lawn was inoculated by placing of wheat grains infected with Microdochium nivale. In each case 3 wheat grains were placed into a single dish. Scoring of the subsequent fungal growth in the lawn dishes was carried out after 5, 7, 14 and 21 days. In the dishes which had been treated with guanidinium hydroxide, an inhibition of the growth of Microdochium nivale of up to 30% (Abbott) was observed.

Structure (SMILES): N=C(N)N.O [guanidinium hydroxide]
- inhibition of the growth of Microdochium nivale: up to 30 % (Abbott)
